Measurements: patent US20240067632A1, “WEE1 Degrading Compounds and Uses Thereof” (Bristol-Myers Squibb Company, priority 2022, published 2024)
Where two headings read alike, the source gives them in different places.

How the values were obtained:
MKN45 cells = assay: MKN45 cell proliferation assay (Cell-Titer-Glo, 120 h); format: cell-based; settings: for EC50: Cell-Titer-Glo, read-out: MKN45 Cell Prolif. 120 hr (EC50); for MKN45 Cell Prolif. 120 hr (Ymin-Obs): minimal percent of DMSO control observed in the concentrations tested
Outline: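 Growth inhibition was read as blank-corrected Cell-Titer-Glo luminescence expressed as percent DMSO control after 120 h at 37 C, 400 cells/well. Compounds tested in triplicate as 10-point half-log series from 1 or 10 uM, 0.1% DMSO; four-parameter fit gave EC50, and lowest observed percent control was reported as Ymin-obs.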

WEE1 = target: T1, WEE1 (Homo sapiens, UniProt P30291+Q96SW2); assay: WEE1-ePL degradation assay (LentiX-WEE1-ePL-GSPT1-ND cells, InCELL Hunter luminescence, 4 h); format: cell-based; settings: 293T-LentiX WEE1-ePL cells; for DC50: read-out: 293T-LentiX WEE1-ePL Degradation 4 hr (EC50)
T1 construct: C-terminal ePL-tagged (DiscoverX, Fremont, CA) full-length WEE1 expression construct; expressed in transfected cells; host or cells: LentiX-HEK293T (Invitrogen), lentiviral transduction; co-expressing GSPT1-GN (G576N, lacking the first 158 amino acids)
Outline: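 First, compounds were pre-plated as 10-point, 3-fold dilutions (top 1 uM or 10 uM) with DMSO control; next, WEE1-ePL-expressing HEK293T cells were added and held 4 h at 37 °C; finally, InCELL Hunter reagent was applied for 30 min before luminescence reading. A 4PL fit gave EC50 and Ymin.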

[1] = Homo sapiens, MKN-45, 120 h, growth inhibition
[2] = lower limit of the fit (0 = luciferase inhibitor, Ymax = DMSO control)
[3] = lower limit of the fit (Ymin=0 luciferase inhibitor, Ymax DMSO control)

Row | Structure (SMILES) | EC50 (MKN45 cells; [1]) [nM] | MKN45 Cell Prolif. 120 hr (Ymin-Obs) (MKN45 cells) | 293T-LentiX WEE1-ePL Degradation 4 hr (Ymin) (WEE1; [2]) | DC50 (WEE1) [nM] | EC50 (MKN45 cells; Homo sapiens, MKN-45, 120 h) [nM] | 293T-LentiX WEE1-ePL Degradation 4 hr (Ymin) (WEE1; [3]) | EC50 (MKN45 cells; growth inhibition) [nM]
1 | CC1(C)C[C@@H](c2ncc3cc(CN4CC[C@H](Oc5ccc6c(c5)CN(C5CCC(=O)NC5=O)C6=O)C4)ccc3n2)CCO1 (stereo partly drawn) [3-(5-{[(3S)-1-({2-[(4S)-2,2-dimethyloxan-4-yl]quinazolin-6-yl}methyl)pyrrolidin-3-yl]oxy}-1-oxo-2,3-dihydro-1H-isoindol-2-yl)piperidine-2,6-dione] | 9.52 | 8.354 | 31 | 43.4 | – | – | –
2 | C[C@@H]1CN(Cc2ccc3nc([C@H]4CCOC(C)(C)C4)ccc3c2)C[C@H]1Oc1ccc2c(c1)CN([C@H]1CCC(=O)NC1=O)C2=O [(3S)-3-(5-{[(3S,4R)-1-({2-[(4S)-2,2-dimethyloxan-4-yl]quinolin-6-yl}methyl)-4-methylpyrrolidin-3-yl]oxy}-1-oxo-2,3-dihydro-1H-isoindol-2-yl)piperidine-2,6-dione] | – | 9.434 | – | 3.51 | 1.44 | 24.63 | –
3 | O=C1CCC(N2C(=O)c3ccc(O[C@H]4CCN(Cc5cnc6ccccc6c5)C4)cc3C2=O)C(=O)N1 (stereo partly drawn) [2-(2,6-dioxopiperidin-3-yl)-5-{[(3S)-1-[(quinolin-3-yl)methyl]pyrrolidin-3-yl]oxy}-2,3-dihydro-1H-isoindole-1,3-dione] | 621 | 15.39 | 30.205 | 32.9 | – | – | –
4 | CO[C@H]1C[C@@H](c2ccc3cc(CN4CC[C@H](Oc5ccc6c(c5)CN(C5CCC(=O)NC5=O)C6=O)C4)ccc3n2)C1 (stereo partly drawn) [drawing 577, 3-(1-oxo-5-{[(3S)-1-({2-[(1s,3s)-3-methoxycyclobutyl]quinolin-6-yl}methyl)pyrrolidin-3-yl]oxy}-2,3-dihydro-1H-isoindol-2-yl)piperidine-2,6-dione] | 2.67 | 7.76 | 28.27 | 2.09 | – | – | –
5 | CC1(C)COCC[C@@H]1c1ccc2cc(CN3CC[C@H](Oc4ccc5c(c4)CN(C4CCC(=O)NC4=O)C5=O)C3)ccc2n1 (stereo partly drawn) [3-(5-{[(3S)-1-({2-[(4S)-3,3-dimethyloxan-4-yl]quinolin-6-yl}methyl)pyrrolidin-3-yl]oxy}-1-oxo-2,3-dihydro-1H-isoindol-2-yl)piperidine-2,6-dione] | 1.7 | 6.945 | 34 | 1.78 | – | – | –
6 | COCc1cnc2ccc(CN3CC[C@H](Oc4ccc5c(c4)CN(C4CCC(=O)NC4=O)C5=O)C3)cc2c1 (stereo partly drawn) [3-(5-{[(3S)-1-{[3-(methoxymethyl)quinolin-6-yl]methyl}pyrrolidin-3-yl]oxy}-1-oxo-2,3-dihydro-1H-isoindol-2-yl)piperidine-2,6-dione] | 11.1 | 7.64 | 33 | 4.28 | – | – | –
7 | O=C1CCC(N2Cc3cc(O[C@H]4CCN(Cc5cnc6cccc(F)c6c5)C4)ccc3C2=O)C(=O)N1 (stereo partly drawn) [3-(5-{[(3S)-1-[(5-fluoroquinolin-3-yl)methyl]pyrrolidin-3-yl]oxy}-1-oxo-2,3-dihydro-1H-isoindol-2-yl)piperidine-2,6-dione] | 309 | 35.14 | 31.52 | 12 | – | – | –
8 | N#Cc1ccc2cc(CN3CC[C@H](Oc4ccc5c(c4)CN(C4CCC(=O)NC4=O)C5=O)C3)ncc2c1 (stereo partly drawn) [3-{[(3S)-3-{[2-(2,6-dioxopiperidin-3-yl)-1-oxo-2,3-dihydro-1H-isoindol-5-yl]oxy}pyrrolidin-1-yl]methyl}isoquinoline-7-carbonitrile] | 10 | 8.661 | 29 | 1.87 | – | – | –
9 | O=C1CCC(N2Cc3cc(O[C@H]4CCN(Cc5ccc6nc(N7CC8(COC8)C7)ccc6c5)C4)ccc3C2=O)C(=O)N1 (stereo partly drawn) [3-(5-{[(3S)-1-[(2-{2-oxa-6-azaspiro[3.3]heptan-6-yl}quinolin-6-yl)methyl]pyrrolidin-3-yl]oxy}-1-oxo-2,3-dihydro-1H-isoindol-2-yl)piperidine-2,6-dione] | 10.7 | 14.91 | 41.5 | 7.76 | – | – | –
10 | C#Cc1ccc2cc(CN3CC[C@H](Oc4ccc5c(c4)CN(C4CCC(=O)NC4=O)C5=O)C3)ccc2n1 (stereo partly drawn) [3-(5-{[(3S)-1-[(2-ethynylquinolin-6-yl)methyl]pyrrolidin-3-yl]oxy}-1-oxo-2,3-dihydro-1H-isoindol-2-yl)piperidine-2,6-dione] | 260 | 6.523 | 32 | 3.14 | – | – | –
11 | CC(C)(O)c1ccc2cc(CN3CC[C@H](Oc4ccc5c(c4)CN(C4CCC(=O)NC4=O)C5=O)C3)ccc2n1 (stereo partly drawn) [3-(5-{[(3S)-1-{[2-(2-hydroxypropan-2-yl)quinolin-6-yl]methyl}pyrrolidin-3-yl]oxy}-1-oxo-2,3-dihydro-1H-isoindol-2-yl)piperidine-2,6-dione] | 14.1 | 11.2475 | 32.75 | 4.09 | – | – | –
12 | CO[C@H]1CC[C@@H](c2ccc3cc(CN4CC[C@H](Oc5ccc6c(c5)CN(C5CCC(=O)NC5=O)C6=O)C4)ccc3n2)C1 (stereo partly drawn) [3-(5-{[(3S)-1-({2-[(1R,3S)-3-methoxycyclopentyl]quinolin-6-yl}methyl)pyrrolidin-3-yl]oxy}-1-oxo-2,3-dihydro-1H-isoindol-2-yl)piperidine-2,6-dione] | 0.741 | 7.233 | 28.33 | 3.2 | – | – | –
13 | O=C1CC[C@H](N2Cc3cc(O[C@H]4CCN(Cc5ccc6nc([C@@H]7CCOC7)ccc6c5)C4)ccc3C2=O)C(=O)N1 [(3S)-3-(1-oxo-5-{[(3S)-1-({2-[(3S)-oxolan-3-yl]quinolin-6-yl}methyl)pyrrolidin-3-yl]oxy}-2,3-dihydro-1H-isoindol-2-yl)piperidine-2,6-dione] | 4.09 | 9.489 | 30 | 2.13 | – | – | –
14 | CC(=O)N1CCC(c2ccc3cc(CN4CC[C@H](Oc5ccc6c(c5)CN([C@H]5CCC(=O)NC5=O)C6=O)C4)ccc3n2)CC1 [(3S)-3-(5-{[(3S)-1-{[2-(1-acetylpiperidin-4-yl)quinolin-6-yl]methyl}pyrrolidin-3-yl]oxy}-1-oxo-2,3-dihydro-1H-isoindol-2-yl)piperidine-2,6-dione] | – | 10.38 | – | 10.1 | 11.8 | 36.62 | –
15 | Cc1cc(Cl)c2cc(CN3CC[C@H](Oc4ccc5c(c4)CN(C4CCC(=O)NC4=O)C5=O)C3)ccc2n1 (stereo partly drawn) [3-(5-{[(3S)-1-[(4-chloro-2-methylquinolin-6-yl)methyl]pyrrolidin-3-yl]oxy}-1-oxo-2,3-dihydro-1H-isoindol-2-yl)piperidine-2,6-dione] | 392 | 44.06 | 32.06 | 4.29 | – | – | –
16 | CC1(C)COCC[C@H]1c1ccc2cc(CN3CC[C@H](Oc4ccc5c(c4)CN(C4CCC(=O)NC4=O)C5=O)C3)ccc2n1 (stereo partly drawn) [3-(5-{[(3S)-1-({2-[(4R)-3,3-dimethyloxan-4-yl]quinolin-6-yl}methyl)pyrrolidin-3-yl]oxy}-1-oxo-2,3-dihydro-1H-isoindol-2-yl)piperidine-2,6-dione] | 8.03 | 11.03 | 41 | 3.31 | – | – | –
17 | O=C1CCC(N2Cc3cc(O[C@H]4CCN(Cc5ccc6nc(N7[C@@H]8CC[C@H]7COC8)ncc6c5)C4)ccc3C2=O)C(=O)N1 (stereo partly drawn) [3-(5-{[(3S)-1-({2-[(1R,5S)-3-oxa-8-azabicyclo[3.2.1]octan-8-yl]quinazolin-6-yl}methyl)pyrrolidin-3-yl]oxy}-1-oxo-2,3-dihydro-1H-isoindol-2-yl)piperidine-2,6-dione] | 24.9 | 8.88 | 33 | 101 | – | – | –
18 | O=C1CCC(N2Cc3cc(O[C@H]4CCN(Cc5ccc6nc(CO[C@H]7CCOC7)ccc6c5)C4)ccc3C2=O)C(=O)N1 (stereo partly drawn) [3-(1-oxo-5-{[(3S)-1-[(2-{[(3S)-oxolan-3-yloxy]methyl}quinolin-6-yl)methyl]pyrrolidin-3-yl]oxy}-2,3-dihydro-1H-isoindol-2-yl)piperidine-2,6-dione] | 3.12 | 7.75 | 33 | 7.04 | – | – | –
19 | CO[C@H]1C[C@H](c2ccc3cc(CN4CC[C@H](Oc5ccc6c(c5)CN(C5CCC(=O)NC5=O)C6=O)C4)ccc3n2)C1 (stereo partly drawn) [drawing 579, 3-(1-oxo-5-{[(3S)-1-({2-[(1r,3r)-3-methoxycyclobutyl]quinolin-6-yl}methyl)pyrrolidin-3-yl]oxy}-2,3-dihydro-1H-isoindol-2-yl)piperidine-2,6-dione] | – | 8.615 | 21.76 | 12.8 | – | – | 4.89
